SMILES strings stand for the structures. Counter-ions that a name gives are not always drawn.

The results in this text go back to patent US9421181B2, “Antihypoxic pharmaceutical composition and application thereof” (CHANGZHOU HI-TECH DISTRICT MULTIPLE DIMENSION INDUSTRY …, priority 2013, dated 2016).

One test relates to brain tissue of the mice. The test is described as follows: Content of EAA (Glu, Asp, GABA, Gly) in brain tissue after decollation. Type of test: in vivo, Kunming mice. The note with it: intragastric 7 days. As to the method:
(§1) Randomly group 70 Kunming male mice into 7 groups: control group, group of L-carnitine 450 mg/kg, group of trimetazidine 9 mg/kg, group of vinpocetine 1.5 mg/kg, group of L-carnitine 450+trimetazidine 9 mg/kg, group of trimetazidine 9+vinpocetine 1.5 mg/kg, and group of L-carnitine 450+trimetazidine 9+vinpocetine 1.5 mg/kg, with each group of 10 mice. Administer […] preparation intragastrically to the mice of experimental groups, and the same volume of normal saline to control group once a day for consecutive 7 days. One hour after the last administration, behead the mice immediately from behind the ear, and stopwatch the breathing time of mice after their decollation.
Biochemical indicator test of brain tissue: After death of the mice, immediately get their brain tissues in ice bath, wash them in ice saline to remove the residual blood, and then add ice […] according to the proportion of 1:9. Under the condition of ice bath, high-speed homogenate machine (10 s per times, at intervals of 15 s for 4 times) is used to make the brain tissue into 10% cerebral homogenate. Centrifuge the homogenate under the temperature of 4° C. with the speed of 2000 r/min for 5 min to separate the supernatant, and detect the content of glutamic acid (Glu), aspartic acid (Asp), aminobutyric acid (GABA), and glycine (Gly) in the brain tissue of the mice by amino acid analyzer. After brain injury, the content of Glu, Asp, GABA and Gly, etc. (representatives of the excitatory amino acid (EAA)) in the brain is higher. In particular, one of the important mechanisms that could cause the death of secondary brain injury neurons is the excessive release of Glu. An important reason that leads to delayed neuronal death is the cascade of damage due to calcium overload in the neurons, which is caused by the activation of receptor N-methyl-D-aspartate (NMDA) by Glu. The degree to which the mitochondrial function is damaged determines the death method of neurons [Clemens J A, Stephenson D T, Smalsting E B. Global ischemia activate nuclear. Storke, 1997, 28:1073-1076].

The subject of test [1] is mice under the condition of normobaric hypoxia. The test can be described thus: Hypoxia tolerance and survival time of mice under normobaric hypoxia (sealed bottle with soda lime). The settings on record: intragastric once a day 7 days. Type of test: in vivo. As to the method: Choose 100 male mice with weight of 20±2 g, randomly group them into 10 by weight with each group of 10 mice, and then inject 10 ml/kg preparation to experimental groups, and the same volume of normal saline to control group by tail intravenous injection once a day for consecutive 7 days. One hour after the last injection, put each mouse into a 160 ml wild-mouth bottle, into which 5 g soda lime has been pre-added, and then seal tightly the caps with petroleum jelly. Record survival time of the mice with death as the indicator.
Choose 80 male mice with weight of 20±2 g, randomly group them into 8 by weight with each group of 10 mice, and then administer 20 ml/kg preparation intragastrically to the mice of experimental groups, and the same volume of normal saline to control group once a day for consecutive 7 days. One hour after the last administration, put each mouse into a 160 ml wild-mouth bottle, into which 5 g soda lime has been pre-added, and then seal tightly the caps with petroleum jelly. Record survival time of the mice with death as the indicator.
Choose 40 male mice with weight of 20±2 g, randomly group them into 4 by weight with each group of 10 mice, and then administer 20 ml/kg preparation intragastrically to the mice of experimental groups, and the same volume of normal saline to control group once a day for consecutive 7 days. One hour after the last administration, put each mouse into a 160 ml wild-mouth bottle, into which 5 g soda lime has been pre-added, and then seal tightly the caps with petroleum jelly. Record survival time of the mice with death as the indicator.
Choose 370 male mice with weight of 20±2 g, randomly group them into 37 by weight with each group of 10 mice, and then inject 10 ml/kg preparation to experimental groups, and the same volume of normal saline to control group once a day for consecutive 7 days. One hour after the last injection, put each mouse into a 160 ml wild-mouth bottle, into which 5 g soda lime has been pre-added, and then seal tightly the caps with petroleum jelly. Record survival time of the mice with death as the indicator.

Test [2] relates to mice model of acute brain hypoxia. The test is described as follows: Mice model of acute brain hypoxia: breathing time after decollation. The settings on record: intragastric once a day 7 days. Type of test: in vivo, Kunming mice. On the procedure: as §1

For `C[N+](C)(C)C[C@H](O)CC(=O)[O-]` [L-carnitine], in the test on brain tissue of the mice (L-carnitine 450 mg/kg), the “Asp content in brain tissue” value was 15.68 ± 4.23 µmol/L, the “GABA content in brain tissue” value amounted to 3.71 ± 1.11 µmol/L, the “Glu content in brain tissue” value was found to be 18.45 ± 1.22 µmol/L and the “Gly content in brain tissue” value was 3.54 ± 1.29 µmol/L. Besides, in test [1] (L-carnitine 450 mg/kg alone), the “Prolonged Survival Time” value was found to be 31.6% and the “Survival Time” value stood at 29.6 ± 3.6 min. Besides, in test [2] (L-carnitine 450 mg/kg), the “Breathing Time after Decollation” value is 18.6 ± 1.2 S.
As to `COc1ccc(CN2CCNCC2)c(OC)c1OC` [Trimetazidine, trimetazidine hydrochloride], in the test on brain tissue of the mice (trimetazidine 9 mg/kg), the “Asp content in brain tissue” value was 15.21 ± 2.06 µmol/L, the “GABA content in brain tissue” value came out at 3.44 ± 1.12 µmol/L, the “Glu content in brain tissue” value was found to be 17.02 ± 0.99 µmol/L and the “Gly content in brain tissue” value turned out to be 3.49 ± 1.12 µmol/L. The “Breathing Time after Decollation” value in test [2] (trimetazidine 9 mg/kg) turned out to be 18.5 ± 2.1 S.
For `CCOC(=O)C1=C[C@]2(CC)CCCN3CCc4c(n1c1ccccc41)[C@@H]32` [Vinpocetine, vinpocetine], in the test with brain tissue of the mice (vinpocetine 1.5 mg/kg), the “Asp content in brain tissue” value came out at 15.46 ± 2.21 µmol/L, the “GABA content in brain tissue” value amounted to 3.15 ± 1.05 µmol/L, the “Glu content in brain tissue” value worked out at 19.12 ± 2.01 µmol/L and the “Gly content in brain tissue” value is 3.82 ± 1.84 µmol/L. In test [1] (vinpocetine 1.5 mg/kg alone), the “Prolonged Survival Time” value amounted to 13.6% and the “Survival Time” value turned out to be 25.1 ± 4.8 min. In addition, the “Breathing Time after Decollation” value in test [2] (vinpocetine 1.5 mg/kg) turned out to be 19.5 ± 1.5 S.
